Test results published in US12686686B2 (priority 2020, dated 2026).
pIC50: −log10 of the molar value. “Also recorded” adds a separate entry of the source. Where two headings read alike, the source gives them in different places.

How the values were obtained:
22RV1 = assay: Cytotoxic activity test (MTT) on 22RV1 prostate cancer cells; format: cell-based, human
Experimental: (§1) All prostate cancer cells were cultured with a RPMI-1640 medium containing 10% calf serum, 100 units of penicillin per milliliter and 100 µg/mL of streptomycin in a constant temperature incubator containing 5% carbon dioxide at a saturated humidity of 37° C.
(§2) Cells in the logarithmic phase of growth were taken and cultured in 96-well plates for 24 hours (5×10^3 cells/well), then treated with different concentrations of the compounds to be tested, and incubated by MTT method for 4 hours. The supernatant was removed by centrifugation, the MTT crystals were dissolved by adding DMSO, and the absorbance value was measured by an enzyme-linked immunosorbent assay at a wavelength of 570 nm. The cytotoxic activity of the compounds to be tested on cancer cells was expressed as IC50.

RWPE-1 = assay: Cytotoxic activity test (MTT) on normal human prostate cell RWPE-1; format: cell-based
Experimental: as §1, §2

C4-2B = assay: Cytotoxic activity test (MTT) on C4-2B prostate cancer cells; format: cell-based, human; conditions: C4-2B cells
Experimental: as §1, §2

C4-2B/ENZR = assay: Cytotoxic activity test (MTT) on C4-2B/ENZR prostate cancer cells; format: cell-based, human; conditions: C4-2B/ENZR cells
Experimental: as §1, §2

LNcap = assay: Cytotoxic activity test (MTT) on LNcap prostate cancer cells; format: cell-based, human; conditions: read-out: Prostate cancer cells IC50 LNcap
Experimental: as §1, §2

Vcap-CRPC = assay: Cytotoxic activity test (MTT) on Vcap-CRPC prostate cancer cells; format: cell-based, human; conditions: read-out: Prostate cancer cells IC50 Vcap-CRPC
Experimental: as §1, §2

prostate cancer cells = assay: Inhibitory activity on a variety of prostate cancer cells (Table 1); format: cell-based, human; conditions: structure-activity statements on Table 1
Experimental: as §1, §2

[1] = Homo sapiens, 22RV1 cells, MTT, read-out: Prostate cancer cells IC50 22RV1
[2] = normal human prostate cell RWPE-1, MTT, read-out: Normal cells RWPE-1 (IC50)
[3] = 22RV1 cells, MTT, read-out: Prostate cancer cells IC50 22RV1
[4] = Homo sapiens, Vcap-CRPC cells, MTT
[5] = Homo sapiens, RWPE-1, read-out: Normal cells RWPE-1 (IC50)

Structure (SMILES) | pIC50 (RWPE-1; [2]) | pIC50 (C4-2B) | pIC50 (C4-2B/ENZR) | pIC50 (22RV1; [3]) | inhibitory activity on prostate cancer cells (in words) (prostate cancer cells) | other results
CC(C)[C@@]12OC3(c4ccccc4)O[C@@H]1[C@@H]1[C@@H]4O[C@]4(CO)[C@@H](O)[C@]4(O)C(=O)[C@@H](C)C[C@H]4[C@@]1(O3)[C@H](C)[C@H]2OC(=O)c1ccccc1 [YH-39] | 4.73 |  |  |  |  | pIC50 (22RV1; [1]): 8.17
C=C(C)C12OC3(c4ccccc4)OC1C1C(O)C(O)(CO)C(O)C4(O)C(=O)C(C)=CC4C1(O3)C(C)C2OC(=O)c1ccccc1 (centres unmarked) [YH-51] | 4.91 | 8.11 | 7.11 | 5.75 | significantly reduced activity | pIC50 (LNcap; LNcap cells, MTT): 8.60; pIC50 (Vcap-CRPC; Vcap-CRPC cells, MTT): 8.69
C=C(C)C1(O)C(O)C2C3OC3(CO)C(O)C3(O)C(=O)C(C)=CC3C2(O)C(C)C1OC(C)=O (centres unmarked) [YH-58] |  | 4.47 | 4.40 |  |  | 
C=C(C)[C@@]12OC3(c4ccccc4)O[C@@H]1[C@@H]1[C@@H]4O[C@]4(CO)[C@@H](O)[C@]4(O)C(=O)C(C)=C[C@H]4[C@@]1(O3)[C@H](C)[C@H]2OC(C)=O [YH-6] | 4.35 |  |  |  |  | pIC50 (C4-2B; Homo sapiens): 9.44; pIC50 (C4-2B/ENZR; Homo sapiens): 8.63; pIC50 (LNcap; Homo sapiens, LNcap cells, MTT): 8.41; pIC50 (Vcap-CRPC; [4]): 7.67; pIC50 (22RV1; [1]): 7.28
C=C(C)[C@@]12OC3(/C=C/C=C/CCCCC)O[C@@H]1[C@@H]1[C@@H]4O[C@]4(CO)[C@@H](O)[C@]4(O)C(=O)C(C)=C[C@H]4[C@@]1(O3)[C@H](C)[C@H]2OC(C)=O [YH-22] |  |  |  |  | most prominent; also recorded: more cytotoxic | pIC50 (RWPE-1; [5]): 5.23
C=C(C)[C@@]12OC3(/C=C/C=C/CCCCC)O[C@@H]1[C@@H]1[C@@H]4O[C@]4(COC(=O)c4ccccc4)[C@@H](O)[C@]4(O)C(=O)C(C)=C[C@H]4[C@@]1(O3)[C@H](C)[C@H]2OC(C)=O [YH-25] |  |  |  |  | significant decrease in activity | pIC50 (C4-2B; Homo sapiens): 6.23; pIC50 (C4-2B/ENZR; Homo sapiens): 5.64
C=C(C)C1(O)C(O)C2C3OC3(CO)C(O)C3(O)C(=O)C(C)=CC3C2(O)C(C)C1OC(=O)c1ccccc1 (centres unmarked) [YH-57] | 4.39 | 5.63 | 5.73 | 4.33 |  | pIC50 (LNcap; LNcap cells, MTT): 5.32; pIC50 (Vcap-CRPC; Vcap-CRPC cells, MTT): 4.39
C=C(C)[C@@]12OC3(c4ccccc4)O[C@@H]1[C@@H]1[C@@H](Br)[C@@](O)(CO)[C@@H](O)[C@]4(O)C(=O)C(C)=C[C@H]4[C@@]1(O3)[C@H](C)[C@H]2OC(=O)c1ccccc1 [YH-53] |  |  |  |  |  | pIC50 (RWPE-1; [5]): 4.25
C=C(C)C1(O)C(OC(=O)c2ccccc2)C(C)C2(O)C(C(O)C(O)(CO)C(O)C3(O)C(=O)C(C)=CC32)C1OC(=O)c1ccccc1 (centres unmarked) [YH-56] | 4.45 | 5.35 | 5.57 | 4.33 |  | pIC50 (LNcap; LNcap cells, MTT): 4.88; pIC50 (Vcap-CRPC; Vcap-CRPC cells, MTT): 4.81
C=C(C)C1(O)C(O)C(C)C2(O)C(C3OC3(CO)C(O)C3(O)C(=O)C(C)=CC32)C1OC(=O)C=CC=CCCCCC (centres unmarked) [YH-61] |  | 6.72 | 6.27 |  |  | 
C=C(C)[C@@]1(O)[C@H](OC(=O)c2ccccc2)[C@@H]2[C@@H]3O[C@]3(CO)[C@@H](O)[C@]3(O)C(=O)C(C)=CC3[C@@]2(O)[C@H](C)[C@H]1OC(=O)c1ccccc1 (some centres unmarked) [YH-60] | 5.32 |  |  |  |  | pIC50 (C4-2B; Homo sapiens): 7.31; pIC50 (C4-2B/ENZR; Homo sapiens): 7.13; pIC50 (LNcap; Homo sapiens, LNcap cells, MTT): 8.55; pIC50 (Vcap-CRPC; [4]): 6.04; pIC50 (22RV1; [1]): 5.41
C=C(C)[C@@]12OC3(c4ccccc4)O[C@@H]1[C@@H]1[C@@H]4O[C@]4(COC(=O)c4ccccc4)[C@@H](O)[C@]4(O)C(=O)C(C)=C[C@H]4[C@@]1(O3)[C@H](C)[C@H]2OC(C)=O [YH-9] |  |  |  |  | significant decrease in activity | pIC50 (C4-2B; Homo sapiens): 6.42; pIC50 (C4-2B/ENZR; Homo sapiens): 5.84
C=C(C)[C@@]12OC3(c4ccccc4)O[C@@H]1[C@@H]1[C@@H]4O[C@]4(CO)[C@@H](O)[C@]4(O)C(=O)C(C)=C[C@H]4[C@@]1(O3)[C@H](C)[C@H]2OC(=O)C(C)C [YH-2] | 4.39 |  |  | 7.58 |  | 
C=C(C)[C@@]12OC3(C)O[C@@H]1[C@@H]1C=C(CO)C[C@]4(O)C(=O)C(C)=C[C@H]4[C@@]1(O3)[C@H](C)[C@H]2OC(=O)c1ccccc1 [YH-44] | 4.76 | 6.71 | 6.19 | 5.33 |  | pIC50 (LNcap; LNcap cells, MTT): 7.13; pIC50 (Vcap-CRPC; Vcap-CRPC cells, MTT): 6.51
CCCCCCCCCC12O[C@@H]3[C@@H]4[C@@H]5O[C@]5(CO)[C@@H](O)[C@]5(O)C(=O)[C@@H](C)C[C@H]5[C@@]4(O1)[C@H](C)[C@@H](OC(C)=O)[C@]3(C(C)C)O2 [YH-38] | 4.69 |  |  |  |  | pIC50 (22RV1; [1]): 8.27
C=C(C)[C@@]12OC3(/C=C/C=C/CCCCC)O[C@@H]1[C@@H]1[C@@H]4O[C@]4(COC(C)=O)[C@@H](O)[C@]4(O)C(=O)C(C)=C[C@H]4[C@@]1(O3)[C@H](C)[C@H]2OC(C)=O [YH-24] | 4.66 |  | 7.17 | 7.34 |  | pIC50 (LNcap; LNcap cells, MTT): 7.32; pIC50 (Vcap-CRPC; Vcap-CRPC cells, MTT): 7.12
C=C(C)C12OC3(c4ccccc4)OC1C1C4OC4(CO)C(O)C4(O)C(=O)C(C)CC4C1(O3)C(C)C2OC(=O)c1ccccc1 (centres unmarked) [YH-36] | 4.84 |  |  | 7.37 |  | 
C=C(C)[C@@]12OC3(c4ccccc4)O[C@@H]1[C@@H]1[C@@H]4O[C@]4(CO)[C@@H](O)[C@]4(O)C(=O)C(C)=C[C@H]4[C@@]1(O3)[C@H](C)[C@H]2OC(=O)c1ccccc1 [YH-11] | 4.87 |  |  |  | most prominent | 
C=C(C)[C@@]12OC3(c4ccccc4)O[C@@H]1[C@@H]1[C@@H]4O[C@]4(COC(C)=O)[C@@H](OC(C)=O)[C@]4(O)C(=O)C(C)=C[C@H]4[C@@]1(O3)[C@H](C)[C@H]2OC(=O)c1ccccc1 [YH-12] |  |  |  |  | significant decrease in activity | pIC50 (C4-2B; Homo sapiens): 6.25; pIC50 (C4-2B/ENZR; Homo sapiens): 5.72
CC1=C[C@@H]2[C@@](O)(C1=O)[C@H](O)[C@@]1(CO)O[C@H]1[C@H]1[C@H]3OC4(c5ccccc5)O[C@@]3(C(C)C)[C@H](OC(=O)c3ccccc3)[C@@H](C)[C@@]12O4 [YH-40] | 4.69 |  |  |  |  | 
C=C(C)[C@@]12OC3(/C=C/C=C/CCCCC)O[C@@H]1[C@@H]1[C@@H]4O[C@]4(COC(=O)c4ccccc4)[C@@H](O)[C@]4(O)C(=O)C(C)=C[C@H]4[C@@]1(O3)[C@H](C)[C@H]2OC(=O)c1ccccc1 [YH-20] |  | 5.80 | 5.24 |  | significant decrease in activity | 
C=C(C)[C@@]12OC3(/C=C/C=C/CCCCC)O[C@@H]1[C@@H]1[C@@H]4O[C@]4(CO)[C@@H](O)[C@]4(O)C(=O)C(C)=C[C@H]4[C@@]1(O3)[C@H](C)[C@H]2OC(=O)c1ccccc1 [YH-16] | 5.01 |  |  |  | more cytotoxic | pIC50 (LNcap; Homo sapiens, LNCaP): 8.27; pIC50 (Vcap-CRPC; Homo sapiens): 8.24; pIC50 (22RV1; Homo sapiens, 22Rv1, read-out: Prostate cancer cells IC50 22RV1): 7.48
COc1cccc2c1C(=O)c1c(O)c3c(c(O)c1C2=O)C[C@@](O)(C(=O)CO)C[C@@H]3O[C@H]1C[C@H](N)[C@H](O)[C@H](C)O1 [DOX, doxorubicin, reference compound] | 7.48 |  |  |  |  | pIC50 (C4-2B; Homo sapiens): 8.98; pIC50 (C4-2B/ENZR; Homo sapiens): 8.54; pIC50 (Vcap-CRPC; [4]): 7.91; pIC50 (22RV1; [1]): 8.22
C=C(C)C12OC3(c4ccccc4)OC1C1C4OC4(CO)C(O)C4(O)C(=O)C(C)CC4C1(O3)C(C)C2OC(C)=O (centres unmarked) [YH-35] | 4.37 | 9.37 | 8.72 | 6.84 |  | pIC50 (LNcap; LNcap cells, MTT): 8.32; pIC50 (Vcap-CRPC; Vcap-CRPC cells, MTT): 7.19
C=C(C)[C@@]12OC3(c4ccccc4)O[C@@H]1[C@@H]1[C@@H]4O[C@]4(CO)[C@@H](O)[C@]4(O)C(=O)C(C)=C[C@H]4[C@@]1(O3)[C@H](C)[C@H]2OC(=O)CCC [YH-1] | 4.36 |  |  | 8.24 |  | 
C=C(C)[C@@]12OC3(/C=C/C=C/CCCCC)O[C@@H]1[C@@H]1[C@@H]4O[C@]4(COC(C)=O)[C@@H](O)[C@]4(O)C(=O)C(C)=C[C@H]4[C@@]1(O3)[C@H](C)[C@H]2OC(=O)c1ccccc1 [YH-19] |  | 7.19 | 6.87 |  | significant decrease in activity | 
CCCCCCCCCC12O[C@@H]3[C@@H]4[C@@H]5O[C@]5(CO)[C@@H](O)[C@]5(O)C(=O)C(C)=C[C@H]5[C@@]4(O1)[C@H](C)[C@@H](OC(C)=O)[C@]3(C(C)C)O2 [YH-37] | 4.99 |  |  |  |  | 
C=C(C)[C@@]12OC3(c4ccccc4)O[C@@H]1[C@@H]1[C@@H]4O[C@]4(CO)[C@@H](O)[C@]4(O)C(=O)C(C)=C[C@H]4[C@@]1(O3)[C@H](C)[C@H]2OC(=O)CC [YH-3] | 4.24 | 8.05 |  | 6.36 |  | pIC50 (LNcap; LNcap cells, MTT): 8.42; pIC50 (Vcap-CRPC; Vcap-CRPC cells, MTT): 8.76
C=C(C)[C@@]12OC3(c4ccccc4)O[C@@H]1[C@@H]1[C@@H]4O[C@]4(COC(C)=O)[C@@H](O)[C@]4(O)C(=O)C(C)=C[C@H]4[C@@]1(O3)[C@H](C)[C@H]2OC(=O)c1ccccc1 [YH-13] | 4.45 |  |  |  |  | pIC50 (C4-2B/ENZR; Homo sapiens): 8.17; pIC50 (LNcap; Homo sapiens, LNcap cells, MTT): 8.34; pIC50 (Vcap-CRPC; [4]): 7.17; pIC50 (22RV1; [1]): 7.08
